According to patent US11912719B2, “Substituted isoquinolines as rock kinase inhibitors” (Cervello Therapeutics LLC, priority 2018, dated 2024):

How the values were obtained:
Format in all cases: biochemical
[1] = biological target: T1, human AKT1 catalytic domain (Homo sapiens, UniProt P31749); experiment: fluorescence coupling (TR-FRET) enzymatic assay, AKT1 off-target control; conditions: 0.5 nM enzyme, 4 μM ATP, 50 nM Ulight-CREBTide, one hour room temperature
T1 construct: GST; purchased Carna BioSciences 01-101
T1 sequence (P31749 104-480): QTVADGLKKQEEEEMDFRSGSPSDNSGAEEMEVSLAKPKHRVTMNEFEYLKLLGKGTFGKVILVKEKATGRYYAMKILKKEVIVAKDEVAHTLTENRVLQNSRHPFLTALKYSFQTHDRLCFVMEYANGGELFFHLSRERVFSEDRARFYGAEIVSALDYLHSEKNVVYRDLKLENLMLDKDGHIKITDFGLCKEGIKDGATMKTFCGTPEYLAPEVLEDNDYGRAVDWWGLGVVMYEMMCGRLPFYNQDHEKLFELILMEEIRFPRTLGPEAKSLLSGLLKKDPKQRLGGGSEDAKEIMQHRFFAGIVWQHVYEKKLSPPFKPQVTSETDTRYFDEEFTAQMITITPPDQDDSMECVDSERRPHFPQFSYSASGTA
Method: (§1) Dose-response curves for compounds of the present invention were determined using a fluorescence coupling enzymatic assay using purified C-terminal truncated human ROCK1 catalytic domain (amino acids 1-477 of accession number NP_005397.1) fused to GST (Carna BioSciences, Catalog #01-109) and purified C-terminal truncated human ROCK2 enzyme kinase domain (amino acids 1-553 of accession number NP_004841.2) fused to GST BioSciences, Catalog #01-110). In addition, full length cGMP-dependent protein kinase 1 (PKG or PRKG1; amino acids 1-686 of accession number NP_006249.1) fused to GST (Carna BioSciences, Catalog #01-142), full length PKACα (PRKACA; amino acids 1-351 of accession number NP_002721.1) fused to GST (Carna BioSciences, Catalog #01-127), and C-terminal truncated human AKT1 catalytic domain (amino acids 104-480 of accession number NP_005154.1) fused to GST Biosciences, Catalog #01-101) were used as a control to measure any non-desired off-target kinase activity.
(§2) Briefly, compounds of the present invention were solubilized in DMSO and a series of 12, three-fold serial dilutions were made for each compound in 2.5% DMSO. The initial starting concentration for the serial dilutions of each compound was 10 μM or 100 μM. Control samples lacking compound, ROCK enzyme or ATP also were prepared and processed in parallel with compound test samples.
(§3) A 4 μL aliquot of each serial dilution of test compound diluted in H2O with 2.5% DMSO was added to a well containing 4 μL of 10 nM purified N-truncated ROCK1 (4 nM final concentration), 10 nM purified N-truncated ROCK2 enzyme (4 nM final concentration), 1.25 nM AKT1 (0.5 nM final concentration), 25 pM PKACA (10 pM final concentration) or 20 nM PKG (8 nM final concentration), in reaction buffer containing 50 mM Hepes, pH 7.5, 1 mM EGTA, 10 mM MgCl2, 2 mM DTT, and 0.01% Tween 20 (final concentration). To initiate the enzymatic reaction, 2 μL of a solution was added to each well to provide a final concentration of 50 nM Ulight-CREBTide peptide substrate (Perkin Elmer, Catalog #TRF0107) and 4 μM ATP for ROCK1 and AKT1 assays, […] for ROCK2 assays and 30 μM ATP for PKG assays, or 1 μM ATP for PKACA assays. The reaction mixtures were incubated at room temperature for one hour. After one hour, the reaction was stopped by the addition of a 10 solution of an Europium-labelled phospho-CREB (Ser133) antibody (Perkin Elmer, Catalog #TRF0200) in LANCE buffer supplemented with 20 mM EDTA. The stopped reaction mixtures were incubated at room temperature for 90 minutes. The TR-FRET 665/620 ratios were determined using a Clariostar monochromator plate reader instrument (BMG LabTech) in accordance with the manufacturer's instructions. The ICso value for each compound was determined from each dose-response curve using GraphPad Prism 7 software with a sigmodial dose response. Key: A is IC50≤100 nM; B is 100 nM<IC50<1000 nM; C is 1,000<IC50≤10,000 nM; D is IC50>10,000 nM

[2] = biological target: T2, human ROCK2 enzyme kinase domain (Homo sapiens, UniProt O75116); experiment: fluorescence coupling (TR-FRET) enzymatic assay, ROCK2; conditions: 4 nM enzyme, 50 nM Ulight-CREBTide, one hour room temperature
T2 construct: GST; purchased Carna BioSciences 01-110
T2 sequence (O75116 1-553): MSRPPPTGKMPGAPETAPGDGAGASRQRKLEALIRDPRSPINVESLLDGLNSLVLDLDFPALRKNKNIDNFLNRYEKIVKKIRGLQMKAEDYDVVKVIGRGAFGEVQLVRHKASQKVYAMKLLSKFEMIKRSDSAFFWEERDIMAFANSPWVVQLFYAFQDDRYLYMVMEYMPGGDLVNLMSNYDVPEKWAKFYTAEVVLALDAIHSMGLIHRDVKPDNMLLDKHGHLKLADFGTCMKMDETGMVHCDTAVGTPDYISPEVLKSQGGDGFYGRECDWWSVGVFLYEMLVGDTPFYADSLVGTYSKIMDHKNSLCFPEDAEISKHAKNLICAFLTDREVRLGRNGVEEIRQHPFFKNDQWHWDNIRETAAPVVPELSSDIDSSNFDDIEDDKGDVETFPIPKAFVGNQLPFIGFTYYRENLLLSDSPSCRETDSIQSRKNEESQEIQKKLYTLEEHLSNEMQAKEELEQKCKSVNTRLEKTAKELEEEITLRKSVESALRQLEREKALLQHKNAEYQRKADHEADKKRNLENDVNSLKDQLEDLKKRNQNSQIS
Method: as §1, §2, §3

[3] = biological target: T3, human ROCK1 catalytic domain (Homo sapiens, UniProt Q13464); experiment: fluorescence coupling (TR-FRET) enzymatic assay, ROCK1; conditions: 4 nM enzyme, 4 μM ATP, 50 nM Ulight-CREBTide, one hour room temperature; read-out: ROCK1 IC50
T3 construct: GST; purchased Carna BioSciences 01-109
T3 sequence (Q13464 1-477): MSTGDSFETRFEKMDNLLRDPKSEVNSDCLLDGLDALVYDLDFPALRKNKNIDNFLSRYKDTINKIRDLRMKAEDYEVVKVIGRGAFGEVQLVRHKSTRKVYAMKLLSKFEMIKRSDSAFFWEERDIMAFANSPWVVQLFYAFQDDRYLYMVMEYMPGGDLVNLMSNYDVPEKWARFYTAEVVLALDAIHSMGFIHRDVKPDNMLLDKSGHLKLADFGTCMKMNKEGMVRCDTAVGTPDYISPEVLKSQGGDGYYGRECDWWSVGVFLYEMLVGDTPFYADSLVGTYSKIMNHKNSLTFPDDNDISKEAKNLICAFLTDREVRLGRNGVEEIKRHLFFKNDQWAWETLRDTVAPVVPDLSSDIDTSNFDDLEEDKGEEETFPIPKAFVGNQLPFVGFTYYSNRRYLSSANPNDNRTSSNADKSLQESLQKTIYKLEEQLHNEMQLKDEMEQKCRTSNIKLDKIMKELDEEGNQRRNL
Method: as §2
The reaction mixtures were incubated at room temperature for one hour. After one hour, the reaction was stopped by the addition of a 10 solution of an Europium-labelled phospho-CREB (Ser133) antibody (Perkin Elmer, Catalog #TRF0200) in LANCE buffer supplemented with 20 mM EDTA. The stopped reaction mixtures were incubated at room temperature for 90 minutes. […] The ICso value for each compound was determined from each dose-response curve using GraphPad Prism 7 software with a sigmodial dose response.

[4] = biological target: T4, cGMP-dependent protein kinase 1 (PKG or PRKG1) (Homo sapiens, UniProt Q13976); experiment: fluorescence coupling (TR-FRET) enzymatic assay, PKG off-target control; conditions: 8 nM enzyme, 30 μM ATP, 50 nM Ulight-CREBTide, one hour room temperature
T4 construct: GST; purchased Carna BioSciences 01-142
T4 sequence (Q13976 1-686 isoform Q13976-2): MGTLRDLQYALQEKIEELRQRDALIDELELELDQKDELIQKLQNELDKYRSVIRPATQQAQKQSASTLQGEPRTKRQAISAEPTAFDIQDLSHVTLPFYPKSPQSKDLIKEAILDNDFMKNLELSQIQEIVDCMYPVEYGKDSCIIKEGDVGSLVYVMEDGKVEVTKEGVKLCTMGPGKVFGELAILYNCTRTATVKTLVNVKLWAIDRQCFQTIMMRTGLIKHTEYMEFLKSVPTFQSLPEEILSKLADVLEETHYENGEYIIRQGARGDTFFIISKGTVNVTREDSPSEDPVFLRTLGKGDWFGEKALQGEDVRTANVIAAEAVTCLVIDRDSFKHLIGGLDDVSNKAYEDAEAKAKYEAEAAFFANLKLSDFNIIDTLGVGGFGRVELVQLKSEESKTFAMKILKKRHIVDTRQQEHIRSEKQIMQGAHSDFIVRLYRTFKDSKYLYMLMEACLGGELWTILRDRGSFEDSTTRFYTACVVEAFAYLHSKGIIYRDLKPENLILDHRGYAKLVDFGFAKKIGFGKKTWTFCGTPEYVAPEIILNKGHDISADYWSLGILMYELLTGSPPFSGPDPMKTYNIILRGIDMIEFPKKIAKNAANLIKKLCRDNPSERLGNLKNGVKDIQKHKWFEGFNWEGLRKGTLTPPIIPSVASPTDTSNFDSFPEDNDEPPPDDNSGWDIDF
Method: as §1, §2, §3

PKACα (PRKACA) = biological target: T5, PKACα (PRKACA) (Homo sapiens, UniProt P17612); experiment: fluorescence coupling (TR-FRET) enzymatic assay, PKACA off-target control; conditions: 10 pM enzyme, 1 μM ATP, 50 nM Ulight-CREBTide, one hour room temperature
T5 construct: GST; purchased Carna BioSciences 01-127
Method: as §1, §2, §3

IC50 [1]	IC50 [2]	IC50 [3]	IC50 [4]	IC50 (PKACα (PRKACA))	Compound
1 to 10 µM	< 0.1 µM	< 0.1 µM	> 10 µM	1 to 10 µM	COc1cc(C#N)cc2c1CCN2S(=O)(=O)c1cccc2c(=O)[nH]ccc12 [Example 29, 4-methoxy-1-((1-oxo-1,2-dihydroisoquinolin-5-yl)sulfonyl)indoline-6-carbonitrile]
1 to 10 µM	< 0.1 µM	< 0.1 µM	> 10 µM	1 to 10 µM	CC(=O)Nc1cc(C#N)cc2c1CCN2S(=O)(=O)c1cccc2c(=O)[nH]ccc12 [Example 30, N-(6-cyano-1-((1-oxo-1,2-dihydroisoquinolin-5-yl)sulfonyl)indolin-4-yl)acetamide]
> 10 µM	< 0.1 µM	< 0.1 µM	> 10 µM	1 to 10 µM	N#Cc1cc(N)c2c(c1)N(S(=O)(=O)c1cccc3c(=O)[nH]ccc13)CC2 [Example 31, 4-amino-1-((1-oxo-1,2-dihydroisoquinolin-5-yl)sulfonyl)indoline-6-carbonitrile]
> 10 µM	< 0.1 µM	< 0.1 µM	1 to 10 µM	> 10 µM	CC(=O)Nc1cc(C#N)cc2c1CCN2S(=O)(=O)c1cccc2c(=O)[nH]cc(C)c12 [Example 32, N-(6-cyano-1-((4-methyl-1-oxo-1,2-dihydroisoquinolin-5-yl)sulfonyl)indolin-4-yl)acetamide]
> 10 µM	< 0.1 µM	< 0.1 µM	> 10 µM	> 10 µM	Cc1c[nH]c(=O)c2cccc(S(=O)(=O)N3CCc4c(N)cc(C#N)cc43)c12 [Example 33, 4-amino-1-((4-methyl-1-oxo-1,2-dihydroisoquinolin-5-yl)sulfonyl)indoline-6-carbonitrile]
> 10 µM	1 to 10 µM	1 to 10 µM	> 10 µM	> 10 µM	Cc1c[nH]c(=O)c2cccc(S(=O)(=O)N3CCc4c(N(C)C)cc(C#N)cc43)c12 [Example 34, 4-(dimethylamino)-1-((4-methyl-1-oxo-1,2-dihydroisoquinolin-5-yl)sulfonyl)indoline-6-carbonitrile]
> 10 µM	< 0.1 µM	< 0.1 µM	1 to 10 µM	> 10 µM	CC(=O)Nc1cc(C#N)cc2c1CCN2S(=O)(=O)c1cccc2c(=O)[nH]cc(Cl)c12 [Example 35, N-(1-((4-chloro-1-oxo-1,2-dihydroisoquinolin-5-yl)sulfonyl)-6-cyanoindolin-4-yl)acetamide]
> 10 µM	< 0.1 µM	< 0.1 µM	1 to 10 µM	> 10 µM	N#Cc1cc(N)c2c(c1)N(S(=O)(=O)c1cccc3c(=O)[nH]cc(Cl)c13)CC2 [Example 36, 4-amino-1-((4-chloro-1-oxo-1,2-dihydroisoquinolin-5-yl)sulfonyl)indoline-6-carbonitrile]

Second part, the compound before the results:

Compound	IC50 [1]	IC50 [2]	IC50 [3]	IC50 [4]	IC50 (PKACα (PRKACA))
N#Cc1ccc2c(c1)N(S(=O)(=O)c1cc(Cl)cc3c(=O)[nH]ccc13)CC2 [Example 20, 1-((7-Chloro-1-oxo-1,2-dihydroisoquinolin-5-yl)sulfonyl)indoline-6-carbonitrile]	> 10 µM	> 10 µM	> 10 µM	> 10 µM	> 10 µM
O=S(=O)(c1cccc2c(O)ncc(F)c12)N1CCc2ccc(Cl)cc21 [Example 21, 5-((6-Chloroindolin-1-yl)sulfonyl)-4-fluoroisoquinolin-1-ol]	> 10 µM	> 10 µM	> 10 µM	> 10 µM	> 10 µM
Cc1cnc(O)c2cccc(S(=O)(=O)N3CCc4ccc(C#N)cc43)c12 [Example 22, 1-((1-Hydroxy-4-methylisoquinolin-5-yl)sulfonyl)indoline-6-carbonitrile]	> 10 µM	< 0.1 µM	< 0.1 µM	> 10 µM	1 to 10 µM
Cc1cc(C#N)cc2c1CCN2S(=O)(=O)c1cccc2c(O)ncc(C)c12 [Example 23, 1-((1-Hydroxy-4-methylisoquinolin-5-yl)sulfonyl)-4-methylindoline-6-carbonitrile]	> 10 µM	0.1 to 1 µM	0.1 to 1 µM	> 10 µM	> 10 µM
Cc1cnc(O)c2cccc(S(=O)(=O)N3CCc4ccc(Cl)cc43)c12 [Example 24, 5-((6-Chloroindolin-1-yl)sulfonyl)-4-methylisoquinolin-1-ol]	> 10 µM	1 to 10 µM	1 to 10 µM	> 10 µM	> 10 µM
O=c1[nH]ncc2c(S(=O)(=O)N3CCc4ccc(Cl)cc43)cccc12 [Example 25, 5-((6-Chloroindolin-1-yl)sulfonyl)phthalazin-1 (2H)-one]	> 10 µM	1 to 10 µM	1 to 10 µM	> 10 µM	> 10 µM
N#Cc1ccc2c(c1)N(S(=O)(=O)c1cccc3c(=O)[nH]ncc13)CC2 [Example 26, 1-((1-Oxo-1,2-dihydrophthalazin-5-yl)sulfonyl)indoline-6-carbonitrile]	> 10 µM	0.1 to 1 µM	0.1 to 1 µM	> 10 µM	> 10 µM
N#Cc1ccc2c(c1)N(S(=O)(=O)c1cccc3c(=O)[nH]cc(Cl)c13)CC2 [Example 27, 1-((4-chloro-1-oxo-1,2-dihydroisoquinolin-5-yl)sulfonyl)indoline-6-carbonitrile]	1 to 10 µM	< 0.1 µM	< 0.1 µM	> 10 µM	1 to 10 µM
N#Cc1cc2c(cn1)CCN2S(=O)(=O)c1cccc2c(=O)[nH]ccc12 [Example 28, 1-((1-oxo-1,2-dihydroisoquinolin-5-yl)sulfonyl)-2,3-dihydro-1H-pyrrolo[3,2-c]pyridine-6-carbonitrile]	> 10 µM	0.1 to 1 µM	0.1 to 1 µM	> 10 µM	> 10 µM
